# From patent US20220251036A1, “DIFLUOROHALOALLYLAMINE SULFONE DERIVATIVE INHIBITORS OF LYSYL OXIDASES, METHODS OF PREPARATION, AND USES THEREOF” (PHARMAXIS LTD., priority 2019, published 2022)
# How the values were obtained:
# [1] = Ultraviolet (UV) absorbance; format: physicochemical; conditions: from 290 nm to 680 nm, Shimadzu LCMS 2020
# Text: Minimising UV light absorption of drugs may avoid risk of phototoxicity and photoallergy. For induction of phototoxicity and/or photoallergy, a chemical must absorb light within the range of natural sunlight (290 to 700 nm). Therefore, compounds with no absorbance across the natural sunlight spectrum are advantageous.
# [2] = Chemical stability in topical formulation; format: physicochemical
# Text: The stability of a drug product formulation can have a significant impact on the length and cost of drug development, the nature of the studies required to support regulatory submissions, and, ultimately, safety and approvability. It is important to minimize the amount of impurities or degradation products that form over time due to interactions between the various ingredients in a formulation. This can be particularly important in compositions that are designed to increase skin permeability.
smiles,measurement,setting,value
"NC/C=C(\F)C(F)(F)S(=O)(=O)c1ccccc1 [Compound 1, (Z)-3,4,4-trifluoro-4-(phenylsulfonyl)but-2-en-1-amine]",UV absorbance,[1],no absorbance
same,% Area at 265 nm,"[2]; 6% in formulation 2, 2-8° C., 161 days",100.00 % Area
same,% Area at 265 nm,"[2]; 6% in formulation 2, 40° C., 161 days",99.66 % Area
same,% Area at 265 nm,"[2]; 6% in formulation 2, reference sample",100.00 % Area
same,% Area at 265 nm,"[2]; 6% in formulation 2, rt, 161 days",100.00 % Area
same,% Area at 265 nm,"[2]; 8% in formulation 2, 2-8° C., 161 days",99.91 % Area
same,% Area at 265 nm,"[2]; 8% in formulation 2, 40° C., 161 days",99.36 % Area
same,% Area at 265 nm,"[2]; 8% in formulation 2, reference sample",100.00 % Area
same,% Area at 265 nm,"[2]; 8% in formulation 2, rt, 161 days",99.74 % Area
same,compound peak percentage,"[2]; topical formulation 2, all the tested conditions",above 99.5%
